Entries after “also recorded” stand apart in the source; their conditions may differ.
Columns and labels:
DP receptor = target: T1, DP receptor (Homo sapiens, UniProt Q13258); test: Competition with 3H-PGD2 binding at the DP receptor (Examples 6-9); conditions: control, cold PGD2, 7 trials
T1 sequence (Q13258 1-359): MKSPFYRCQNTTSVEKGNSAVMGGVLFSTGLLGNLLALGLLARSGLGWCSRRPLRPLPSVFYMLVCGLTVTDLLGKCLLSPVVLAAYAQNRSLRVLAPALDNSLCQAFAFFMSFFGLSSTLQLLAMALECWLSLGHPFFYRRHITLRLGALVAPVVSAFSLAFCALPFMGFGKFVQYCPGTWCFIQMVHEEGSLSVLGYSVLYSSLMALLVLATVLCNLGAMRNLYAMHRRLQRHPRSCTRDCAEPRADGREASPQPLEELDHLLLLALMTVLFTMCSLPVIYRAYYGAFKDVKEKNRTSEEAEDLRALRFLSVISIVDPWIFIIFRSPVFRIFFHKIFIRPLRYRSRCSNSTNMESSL
Procedure: To directly determine the binding affinity of CRTH2 for PGD2, the following binding assay was used. Transfected and parental 300-19 cells were washed twice at room temperature with assay buffer, and resuspended at a concentration of 2×10^7 cells/ml. Using a 96-well U-bottom polypropylene plate (Costar, Corning Inc., Acton, Mass.), the assay was set up as follows: 50 μl of vehicle (0.3% DMSO in assay buffer, total wells) or of […] cold PGD2 (NS wells); 50 μl cells (2×10^7 cells/ml for 10^6 cells per well); 50 μl 6 nM [3H]-PGD2. The plate was allowed to incubate for 20 min at RT before centrifugation (2800 rpm, Sorval RT6000, 5 min, 4° C.). The plate was harvested (Packard Unifilter plate GF/C, previously soaked in 3% PEI for at least 1 hr) with cold assay buffer using a Packard Filtermate Cell Harvester (6×150 μl buffer wash per well). The filterplate was dried overnight. After the addition of 50 μl scintillation fluid (Packard Microscint 0), the plate was counted in a Packard Topcount scintillation counter (1 min per well). […]
In the assay, the capacity of each D-ring compound to compete with binding of ^3H-PGD2 was measured at both the CRTH2 and DP receptors, and an IC50 value (in μM) was determined. […]

CRTH2 [1] = target: T2, CRTH2 (Homo sapiens, UniProt Q9Y5Y4); test: Competition with 3H-PGD2 binding at the CRTH2 receptor (Examples 6-9); conditions: control, cold PGD2, 8 trials
T2 construct: prolactin (prolac) signal peptide (N); expressed in transfected cells; host or cells: 300-19 cells (transformed murine pre-B lymphocytes)
T2 sequence (Q9Y5Y4 1-395): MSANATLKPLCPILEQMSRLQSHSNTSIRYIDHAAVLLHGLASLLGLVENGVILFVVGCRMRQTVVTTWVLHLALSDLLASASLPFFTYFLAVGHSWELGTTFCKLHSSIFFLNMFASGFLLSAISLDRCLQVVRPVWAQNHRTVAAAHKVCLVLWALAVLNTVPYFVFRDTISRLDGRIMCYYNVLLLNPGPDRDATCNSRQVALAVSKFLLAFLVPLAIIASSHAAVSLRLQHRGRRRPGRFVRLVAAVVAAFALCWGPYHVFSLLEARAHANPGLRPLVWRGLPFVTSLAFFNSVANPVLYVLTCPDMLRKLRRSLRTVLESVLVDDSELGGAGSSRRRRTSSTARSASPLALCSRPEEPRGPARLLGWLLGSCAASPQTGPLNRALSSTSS
Procedure: To directly determine the binding affinity of CRTH2 for PGD2, the following binding assay was used. Transfected and parental 300-19 cells were washed twice at room temperature with assay buffer, and resuspended at a concentration of 2×10^7 cells/ml. Using a 96-well U-bottom polypropylene plate (Costar, Corning Inc., Acton, Mass.), the assay was set up as follows: 50 μl of vehicle (0.3% DMSO in assay buffer, total wells) or of […] cold PGD2 (NS wells); 50 μl cells (2×10^7 cells/ml for 10^6 cells per well); 50 μl 6 nM [3H]-PGD2. The plate was allowed to incubate for 20 min at RT before centrifugation (2800 rpm, Sorval RT6000, 5 min, 4° C.). The plate was harvested (Packard Unifilter plate GF/C, previously soaked in 3% PEI for at least 1 hr) with cold assay buffer using a Packard Filtermate Cell Harvester (6×150 μl buffer wash per well). The filterplate was dried overnight. After the addition of 50 μl scintillation fluid (Packard Microscint 0), the plate was counted in a Packard Topcount scintillation counter (1 min per well). […] The solutions of labeled PGD2 and unlabeled “cold” PGD2 were prepared as follows: 10 μl of [^3H]-PGD2 (Amersham lot # TRK734 162 Ci/mmol, 0.1 Ci/ml in methanol: water: acetonitrile (3:2:1), 617 nM) per ml assay buffer was used to prepare a solution of [^3H]-PGD2 at a concentration of 6 nM (50 μl/well for final conc. of 2 nM); cold PGD2 (Biomol #PG-005, lot # P4653) was dissolved in DMSO for a stock of 10 mM (stored at −20° C.). The 10 mM stock was diluted 3:1000 to obtain a final concentration of […] (50 μl/well for final conc. of […]). Assay buffer: Hank's balanced saline supplemented with HEPES and sodium bicarbonate: 100 ml/L of 10× Hank's Balanced saline (with Ca^+2, Mg^+2); 10 ml/L of 1M HEPES; 4.7 ml/L of 7.5% Sodium Bicarbonate.
In the assay, the capacity of each D-ring compound to compete with binding of ^3H-PGD2 was measured at both the CRTH2 and DP receptors, and an IC50 value (in μM) was determined. […] The binding assay procedure of Example 1 was used. Preferably, the ratio of IC50 at CRTH2 to IC50 at DP is less than about twenty, and more preferably is […].

CRTH2 [2] = target: T2, CRTH2; test: [Ca2+]i mobilization assay in 300-19 cells expressing CRTH2; assay type: cell-based; conditions: CRTH2 stable cell line (300-19 transfectants)
Procedure: The ratio of fluorescence produced by the calcium-bound dye to that produce by the unbound dye is used to estimate the intracellular calcium concentration. In one embodiment, for example, the following method can be used. Cells that express CRTH2 are collected, and resuspended in fresh media at ˜2×10^5/ml the day before performing the calcium flux assay. Cells are incubated at 37° C. for not longer than 20-30 minutes, and then spun down and resuspended in 50 ml fresh PTI buffer (Hank's Buffer, pH 7.2-7.4; 10 mM Hepes; 1.6 mM CaCl2) containing Indo-1 AM, pre-warmed to 37° C., at a concentration of 10 million per ml. Cells are excited, and fluorescence is measured using a fluorimeter (Photon Technology Corporation, International). After the readout has stabilized, the time axis is reset, and PGD2 is added at a specific time point (e.g., 20 seconds). After response, the following reagents are added to the cuvette, to release and chelate total calcium, in the following order: 20 μl of 18% Triton X-100, 20 μl of 3M Tris, pH 8.5, and 20 μl of 0.5 M EGTA, pH 8.5. The experiment is repeated in the presence and the absence of a test compound.
Using 300-19 cells (transformed pre-B lymphocytes) expressing CRTH2, a number of mast cell and non-mast cell-derived mediators were screened in a [Ca^2+]i mobilization assay. […]

[3] = tested on: human activated T-lymphocytes; test: Chemotaxis of human T lymphocytes (Boyden chamber); assay type: cell-based; conditions: anti-CD3 or anti-CD3 and anti-CD28 stimulated T cells
Procedure: (§1) The chemotactic response of human T lymphocytes to PGD2, murine MDC and murine mSDF was also assayed. Chemotaxis was determined using a 48-well Boyden chamber (Neuroprobe, Cabin John, Md.), and 3.0 μm polycarbonate filters. Cells were resuspended (3-3.5×10^6 cells/ml) in RPMI 1640 supplemented with 10 mM HEPES and 1 mg/ml bovine serum albumin (Sigma, St. Louis, Mo.), and placed into the upper wells of the chamber. The compound to be tested was placed in the lower wells. The chambers were incubated for 90-120 minutes at 37° C. in a humidified CO2 incubator. At the end of the incubation period, the number of migrating cells on the filter (expressed per high power field) were enumerated microscopically. […] In FIG. 4, the chemotactic response of human basophils to PGD2 and C5a is shown.

human basophils = test: Chemotaxis of human basophils; assay type: cell-based
Procedure: as §1

CCCCC[C@H](O)/C=C/[C@H]1C(=O)C[C@H](O)[C@@H]1C/C=C\CCCC(=O)O [PGD2, prostaglandin D2]
IC50 (DP receptor): 23.4 nM | IC50 (CRTH2 [1]): 10.7 nM | EC50 (CRTH2 [2]): 15 nM | chemotactic response of human T lymphocytes [3]: respond specifically to PGD2; also recorded: responsive to PGD2 | chemotactic response of human basophils (human basophils): responsive to PGD2

From patent US6878522B2, “Methods for the identification of compounds useful for the treatment of disease states mediated by prostaglandin D2” (priority 2000, dated 2005)
